Values quoted from earlier work as cited in article PMC12562379, “Facile Synthesis of N-vinylindoles via Knoevenagel Condensation: Molecular Features and Biological Activities” (International Journal of Molecular Sciences, 2025).

Set-up: method as in PMID 29925826
Settings: NH-acid; cited from earlier work

For `c1ccc2[nH]nnc2c1` [1H-benzotriazole], the pKa is given as 8.2.
